Assay results from patent publication US20080213356A1, “Pharmaceutical Composition Containing Hmg-Coa Reductase Inhibitor And Method For The Preparation Thereof” (PHARMATHEN S.A., priority 2005, published 2008).
Structures can show the parent of a compound that is named as a salt.

Test: Flowability and compressibility, Carr's Index
Format: physicochemical
Conditions: pure pharmaceutical substance
From the text: However, when Dimethicone was incorporated according to the present invention, a decrease of 40-50% of the Carr Index was observed, which indicates an improvement of the flow properties of Fluvastatin and Atorvastatin and therefore the use of a direct compression for the final formulation.

- mean Carr's Index: 24-25%
SMILES: CC(C)c1c(C(=O)Nc2ccccc2)c(-c2ccccc2)c(-c2ccc(F)cc2)n1CC[C@@H](O)C[C@@H](O)CC(=O)O (relative stereo) [Atorvastatin, [R—(R*,R*)]-2-(4-fluorophenyl)-b,d-dihydroxy-5-(1-methylethyl)-3-phenyl-4 [(phenylamino)carbonyl]-1H-pyrrole-1-heptanoic acid, calcium salt (2:1) trihydrate]
